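Tested at 5 concentrations; 48 h exposure; 96-well plates; endpoints linearly interpolated, else capped at highest concentration. The concentration for 50% growth inhibition is given as GI50. Definition used: TGI = concentration required for complete inhibition of growth.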
Legend:
Test in all cases: DTP human tumour cell line panel, 48 h
HOP-92 NSCLC = tested on: HOP-92 NSCLC
SW-620 colon = tested on: SW-620 colon
786-0 renal = tested on: 786-0 renal
IGROV1 ovarian = tested on: IGROV1 ovarian
SF-268 CNS = tested on: SF-268 CNS
NCI-H226 lung = tested on: NCI-H226 lung
KM12 colon = tested on: KM12 colon
U251 CNS = tested on: U251 CNS
RXF 393 renal = tested on: RXF 393 renal
MDA-MB-231 breast = tested on: MDA-MB-231 breast
OVCAR-4 ovarian = tested on: OVCAR-4 ovarian
SNB-75 CNS = tested on: SNB-75 CNS
BT-549 breast = tested on: BT-549 breast
COLO 205 colon = tested on: COLO 205 colon
CCRF-CEM leukemia = tested on: CCRF-CEM leukemia
NCI/ADR-RES ovarian = tested on: NCI/ADR-RES ovarian
UO-31 renal = tested on: UO-31 renal
MCF7 breast = tested on: MCF7 breast
UACC-62 melanoma = tested on: UACC-62 melanoma
OVCAR-5 ovarian = tested on: OVCAR-5 ovarian
LOX IMVI melanoma = tested on: LOX IMVI melanoma
NCI-H460 lung = tested on: NCI-H460 lung
SF-295 CNS = tested on: SF-295 CNS
OVCAR-3 ovarian = tested on: OVCAR-3 ovarian
A549 NSCLC = tested on: A549 NSCLC
SNB-19 CNS = tested on: SNB-19 CNS
RPMI-8226 leukemia = tested on: RPMI-8226 leukemia
SF-539 CNS = tested on: SF-539 CNS
MALME-3M melanoma = tested on: MALME-3M melanoma
M14 melanoma = tested on: M14 melanoma
HCT-15 colon = tested on: HCT-15 colon
NCI-H522 lung = tested on: NCI-H522 lung
EKVX NSCLC = tested on: EKVX NSCLC
MDA-MB-435 = tested on: MDA-MB-435
CAKI-1 renal = tested on: CAKI-1 renal
ACHN renal = tested on: ACHN renal
NCI-H23 lung = tested on: NCI-H23 lung
HCT-116 colon = tested on: HCT-116 colon
SN12C renal = tested on: SN12C renal
PC-3 prostate = tested on: PC-3 prostate
SK-OV-3 ovarian = tested on: SK-OV-3 ovarian
HT29 colon = tested on: HT29 colon
HCC-2998 colon = tested on: HCC-2998 colon
HL-60(TB) leukemia = tested on: HL-60(TB) leukemia
SK-MEL-5 melanoma = tested on: SK-MEL-5 melanoma
K-562 leukemia = tested on: K-562 leukemia
SK-MEL-2 melanoma = tested on: SK-MEL-2 melanoma
HS 578T breast = tested on: HS 578T breast
A498 renal = tested on: A498 renal
DU-145 prostate = tested on: DU-145 prostate
UACC-257 melanoma = tested on: UACC-257 melanoma
T-47D breast = tested on: T-47D breast
HOP-62 NSCLC = tested on: HOP-62 NSCLC
TK-10 renal = tested on: TK-10 renal
SK-MEL-28 melanoma = tested on: SK-MEL-28 melanoma
SR leukemia = tested on: SR leukemia
MOLT-4 leukemia = tested on: MOLT-4 leukemia
OVCAR-8 ovarian = tested on: OVCAR-8 ovarian

In the case of `O=C(OCc1ccc2c(Br)cc(Br)c(O)c2n1)c1cc2ccccc2[nH]1`, the GI50 (HOP-92 NSCLC) is reported as 0.548 µM, the TGI (HOP-92 NSCLC) is reported as 2.15 µM and the GI50 (SW-620 colon) is reported as 0.333 µM. It also gave a TGI (SW-620 colon) of 1.13 µM, a GI50 (786-0 renal) of 0.851 µM and a TGI (786-0 renal) of 2.22 µM. It also gave a GI50 (IGROV1 ovarian) of 0.66 µM, a TGI (IGROV1 ovarian) of 1.91 µM and a GI50 (SF-268 CNS) of 1.44 µM. It also gave a TGI (SF-268 CNS) of 2.91 µM, a GI50 (NCI-H226 lung) of 1.42 µM and a TGI (NCI-H226 lung) of 3.11 µM. For the same molecule, the GI50 (KM12 colon) was 1.52 µM, the TGI (KM12 colon) was 3.09 µM and the GI50 (U251 CNS) was 1.4 µM. The TGI (U251 CNS) was 2.91 µM, the GI50 (RXF 393 renal) was 0.338 µM and the TGI (RXF 393 renal) was 1.26 µM. For the same molecule, the GI50 (MDA-MB-231 breast) was 0.963 µM, the TGI (MDA-MB-231 breast) was 2.44 µM and the GI50 (OVCAR-4 ovarian) was 0.959 µM. For the same molecule, the TGI (OVCAR-4 ovarian) was 2.31 µM, the GI50 (SNB-75 CNS) was 0.328 µM and the TGI (SNB-75 CNS) was 1.8 µM. It also gave a GI50 (BT-549 breast) of 0.706 µM, a TGI (BT-549 breast) of 2.06 µM and a GI50 (COLO 205 colon) of 0.511 µM. The TGI (COLO 205 colon) was 1.84 µM, the GI50 (CCRF-CEM leukemia) was 0.293 µM and the TGI (CCRF-CEM leukemia) was 2.03 µM. It also gave a GI50 (NCI/ADR-RES ovarian) of 1.63 µM, a TGI (NCI/ADR-RES ovarian) of 7.59 µM and a GI50 (UO-31 renal) of 0.406 µM. It also gave a TGI (UO-31 renal) of 1.19 µM, a GI50 (MCF7 breast) of 0.434 µM and a TGI (MCF7 breast) of 2.07 µM. For the same molecule, the GI50 (UACC-62 melanoma) was 1.16 µM, the TGI (UACC-62 melanoma) was 2.47 µM and the GI50 (OVCAR-5 ovarian) was 1.24 µM. It also gave a TGI (OVCAR-5 ovarian) of 2.68 µM, a GI50 (LOX IMVI melanoma) of 0.185 µM and a TGI (LOX IMVI melanoma) of 0.405 µM. For the same molecule, the GI50 (NCI-H460 lung) was 1.53 µM, the TGI (NCI-H460 lung) was 3.33 µM and the GI50 (SF-295 CNS) was 3.32 µM. The TGI (SF-295 CNS) was 7.68 µM, the GI50 (OVCAR-3 ovarian) was 0.281 µM and the TGI (OVCAR-3 ovarian) was 0.921 µM. For the same molecule, the GI50 (A549 NSCLC) was 1.42 µM, the TGI (A549 NSCLC) was 3.62 µM and the GI50 (SNB-19 CNS) was 1.8 µM. It also gave a TGI (SNB-19 CNS) of 4.09 µM, a GI50 (RPMI-8226 leukemia) of 0.357 µM and a TGI (RPMI-8226 leukemia) of 1.94 µM. For the same molecule, the GI50 (SF-539 CNS) was 0.962 µM, the TGI (SF-539 CNS) was 2.17 µM and the GI50 (MALME-3M melanoma) was 1.38 µM. For the same molecule, the TGI (MALME-3M melanoma) was 2.77 µM, the GI50 (M14 melanoma) was 0.763 µM and the TGI (M14 melanoma) was 2.15 µM. The GI50 (HCT-15 colon) was 0.314 µM, the TGI (HCT-15 colon) was 1.03 µM and the GI50 (NCI-H522 lung) was 0.552 µM. It also gave a TGI (NCI-H522 lung) of 2.19 µM, a GI50 (EKVX NSCLC) of 1.46 µM and a TGI (EKVX NSCLC) of 3 µM. The GI50 (MDA-MB-435) was 0.709 µM, the TGI (MDA-MB-435) was 2.08 µM and the GI50 (CAKI-1 renal) was 0.505 µM. It also gave a TGI (CAKI-1 renal) of 1.86 µM, a GI50 (ACHN renal) of 0.352 µM and a TGI (ACHN renal) of 1.27 µM. It also gave a GI50 (NCI-H23 lung) of 1.44 µM, a TGI (NCI-H23 lung) of 3.14 µM and a GI50 (HCT-116 colon) of 0.16 µM. It also gave a TGI (HCT-116 colon) of 0.368 µM, a GI50 (SN12C renal) of 0.839 µM and a TGI (SN12C renal) of 2.18 µM. For the same molecule, the GI50 (PC-3 prostate) was 0.965 µM, the TGI (PC-3 prostate) was 2.68 µM and the GI50 (SK-OV-3 ovarian) was 6.03 µM. For the same molecule, the TGI (SK-OV-3 ovarian) was 18.6 µM, the GI50 (HT29 colon) was 0.408 µM and the TGI (HT29 colon) was 1.59 µM. The GI50 (HCC-2998 colon) was 1.57 µM, the TGI (HCC-2998 colon) was 3.1 µM and the GI50 (HL-60(TB) leukemia) was 0.615 µM. The TGI (HL-60(TB) leukemia) was 2.94 µM, the GI50 (SK-MEL-5 melanoma) was 1.61 µM and the TGI (SK-MEL-5 melanoma) was 2.99 µM. For the same molecule, the GI50 (K-562 leukemia) was 0.398 µM, the TGI (K-562 leukemia) was over 40 µM and the GI50 (SK-MEL-2 melanoma) was 1.48 µM. It also gave a TGI (SK-MEL-2 melanoma) of 3.2 µM, a GI50 (HS 578T breast) of 1.24 µM and a TGI (HS 578T breast) of 3.87 µM. It also gave a GI50 (A498 renal) of 1.56 µM, a TGI (A498 renal) of 2.96 µM and a GI50 (DU-145 prostate) of 0.91 µM. For the same molecule, the TGI (DU-145 prostate) was 2.18 µM, the GI50 (UACC-257 melanoma) was 1.36 µM and the TGI (UACC-257 melanoma) was 3.38 µM. It also gave a GI50 (T-47D breast) of 1.91 µM, a TGI (T-47D breast) of 5.29 µM and a GI50 (HOP-62 NSCLC) of 1.34 µM. It also gave a TGI (HOP-62 NSCLC) of 3.47 µM, a GI50 (TK-10 renal) of 1.18 µM and a TGI (TK-10 renal) of 2.43 µM. The GI50 (SK-MEL-28 melanoma) was 1.24 µM, the TGI (SK-MEL-28 melanoma) was 2.51 µM and the GI50 (SR leukemia) was 0.43 µM. For the same molecule, the TGI (SR leukemia) was 4.22 µM, the GI50 (MOLT-4 leukemia) was 0.488 µM and the TGI (MOLT-4 leukemia) was 2.49 µM. The GI50 (OVCAR-8 ovarian) was 0.829 µM and the TGI (OVCAR-8 ovarian) was 2.82 µM.

— PubChem BioAssay (NCI)
